Data taken from ChEMBL document CHEMBL2073744, “The multidrug-resistant phenotype associated with overexpression of the new ABC half-transporter, MXR (ABCG2)” (J Cell Sci, 2000).

Columns and labels:
[1] = molecular target: T1, Broad substrate specificity ATP-binding cassette transporter ABCG2 (Homo sapiens, UniProt Q9UNQ0); test: TP_TRANSPORTER: intracellular accumulation in S1 and S1-M1-80 cells; type: functional, cell-based; conditions: s1;s1-m1-80
T1 sequence (Q9UNQ0 whole entry): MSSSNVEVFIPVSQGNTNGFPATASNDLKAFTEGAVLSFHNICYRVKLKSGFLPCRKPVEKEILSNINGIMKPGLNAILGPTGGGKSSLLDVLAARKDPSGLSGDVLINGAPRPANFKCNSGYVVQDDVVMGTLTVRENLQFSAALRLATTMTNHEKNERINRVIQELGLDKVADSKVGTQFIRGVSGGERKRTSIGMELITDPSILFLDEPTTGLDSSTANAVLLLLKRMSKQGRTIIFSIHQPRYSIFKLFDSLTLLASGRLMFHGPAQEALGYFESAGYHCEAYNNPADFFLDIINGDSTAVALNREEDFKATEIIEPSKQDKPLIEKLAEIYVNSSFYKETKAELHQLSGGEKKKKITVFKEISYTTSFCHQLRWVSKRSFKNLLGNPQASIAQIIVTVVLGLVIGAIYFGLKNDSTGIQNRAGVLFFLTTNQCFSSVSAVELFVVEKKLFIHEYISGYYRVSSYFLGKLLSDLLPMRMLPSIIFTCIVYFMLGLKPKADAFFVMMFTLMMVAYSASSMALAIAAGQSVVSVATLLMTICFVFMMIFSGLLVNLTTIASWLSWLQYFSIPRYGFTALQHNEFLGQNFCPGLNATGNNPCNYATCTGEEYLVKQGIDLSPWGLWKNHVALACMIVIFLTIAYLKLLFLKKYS

[2] = molecular target: T1, Broad substrate specificity ATP-binding cassette transporter ABCG2; test: TP_TRANSPORTER: intracellular accumulation in MCF-7 and MCF-7 AdVp3000 cells; type: functional, cell-based

Q: `O=C1c2c(O)ccc(O)c2C(=O)c2c(NCCNCCO)ccc(NCCNCCO)c21` [MITOXANTRONE] was tested. Which Activity [1] did it give?
A: Its Activity is “substrate [+]”.

Q: And the Activity [2]?
A: Its Activity is “substrate [+]”.
